# Experiments:
# Type in all cases: in vivo, human
# [1] = tested on: married person with small very atrophic testicles; assay: Clinical Example A: person with history of undescended testicles, impotence and infertility treated with Arimidex; conditions: ⅛ mg (0.125 mg) daily
# Text: A married person with a history of undescended testicles that were surgically corrected […]. This person presented to the inventor with small very atrophic testicles, impotence (difficulty in erecting, only occasionally able to have successful intercourse only with PDE5 inhibitors) and an inability to conceive despite two years of unprotected sexual intercourse with their spouse.
# All of this is a result of the improved testicular function that this relatively low dose of Arimidex provided for this patient.
# [2] = tested on: person with extremely small and atrophic testicles; assay: Clinical Example B: person with low libido, erectile dysfunction and ejaculatory failure treated with Femara; conditions: ⅛ to ½ of a 2.5 mg tablet
# Protocol: A […] athletic and muscular […] complaining of low libido, erectile dysfunction and ejaculatory failure. Patient was needing to use Viagra in order to function sexually, and had no desire for sex. Sex hormones testosterone and estrogen were measured at prepubertal levels.
# [3] = tested on: person with testicular atrophy following pelvic radiation; assay: Clinical Example C: person with testicular decline after pelvic radiation for prostate cancer treated with Letrazole; conditions: 1/40th of a 2.5 mg tablet daily
# Text: A sexually active person with biopsy confirmed prostate cancer elects to treat their cancer with pelvic radiation. Following radiation there is a progressive decline in testosterone levels, combined with testicular atrophy and increasing erectile dysfunction.
SMILES,erectile function [1],fertility (ability to conceive) [1],sperm counts [1],testicular function [1],testosterone levels [1],ejaculations during intercourse [2],erections [2],sex drive [2],testicular function [2],testosterone levels [2],testicular function [3],testosterone levels [3]
"CC(C)(C#N)c1cc(Cn2cncn2)cc(C(C)(C)C#N)c1 [Arimidex, Anastrozole]",dramatic improvement,able to conceive and have a child,dramatic increase,improved,significant increase,,,,,,,
"N#Cc1ccc(C(c2ccc(C#N)cc2)n2cncn2)cc1 [Femara, Letrozole]",,,,,,restoration,improved,restoration,dramatic increase,restored to the high supraphysiologic levels,significant improvement,dramatic rise
